Measured values reported in ChEMBL document CHEMBL1201862, “PubChem BioAssay data set” (2004).
The source made the active and inactive calls.

Key:
[1] = molecular target: T1, Voltage-gated N-type calcium channel alpha-1B subunit/Amyloid beta A4 precursor protein-binding family A member 1 (Homo sapiens, UniProt Q00975+Q02410); assay type: protein assay
[2] = molecular target: Luciferin 4-monooxygenase (Photinus pyralis, UniProt P08659); assay: inhibition of purified Photinus pyralis luciferase – biochemical, luminescence, dose response (AID 1891)
Chain of Luciferin 4-monooxygenase (P08659 whole entry): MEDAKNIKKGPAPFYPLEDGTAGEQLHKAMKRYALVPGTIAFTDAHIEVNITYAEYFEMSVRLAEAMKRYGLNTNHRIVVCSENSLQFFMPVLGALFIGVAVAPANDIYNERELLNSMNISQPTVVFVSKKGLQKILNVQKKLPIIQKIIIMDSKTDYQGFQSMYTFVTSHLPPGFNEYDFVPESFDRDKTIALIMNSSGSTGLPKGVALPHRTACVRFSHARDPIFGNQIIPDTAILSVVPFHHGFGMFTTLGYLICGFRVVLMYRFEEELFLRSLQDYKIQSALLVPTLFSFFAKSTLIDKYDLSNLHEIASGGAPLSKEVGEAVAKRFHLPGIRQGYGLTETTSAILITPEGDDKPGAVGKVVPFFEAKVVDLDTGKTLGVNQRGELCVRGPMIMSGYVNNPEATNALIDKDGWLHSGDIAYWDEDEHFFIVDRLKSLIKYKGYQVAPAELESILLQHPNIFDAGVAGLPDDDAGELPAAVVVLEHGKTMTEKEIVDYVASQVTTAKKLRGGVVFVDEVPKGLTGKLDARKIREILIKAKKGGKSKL

[3] = Luminescence Cell-Based Dose Confirmation HTS to Identify Inhibitors of Platelet Dense Granule Release. [Related pubchem assays: 1663 (Primary HTS), 1678 (Summary of Project)]; assay type: functional
[4] = molecular target: T1, Voltage-gated N-type calcium channel alpha-1B subunit/Amyloid beta A4 precursor protein-binding family A member 1; assay type: protein assay; remark: listed apart in the source
[5] = molecular target: T2, Sphingosine 1-phosphate receptor 4 (Homo sapiens, UniProt O95977); assay: Fluorescence dose response cell-based high throughput screening assay for antagonists of the Sphingosine 1-Phosphate Receptor 4 (S1P4). [Related pubchem assays: 1524 (Confirmation in triplicates.), 1510 (Primary screen.)]; assay type: functional
T2 sequence (O95977 whole entry): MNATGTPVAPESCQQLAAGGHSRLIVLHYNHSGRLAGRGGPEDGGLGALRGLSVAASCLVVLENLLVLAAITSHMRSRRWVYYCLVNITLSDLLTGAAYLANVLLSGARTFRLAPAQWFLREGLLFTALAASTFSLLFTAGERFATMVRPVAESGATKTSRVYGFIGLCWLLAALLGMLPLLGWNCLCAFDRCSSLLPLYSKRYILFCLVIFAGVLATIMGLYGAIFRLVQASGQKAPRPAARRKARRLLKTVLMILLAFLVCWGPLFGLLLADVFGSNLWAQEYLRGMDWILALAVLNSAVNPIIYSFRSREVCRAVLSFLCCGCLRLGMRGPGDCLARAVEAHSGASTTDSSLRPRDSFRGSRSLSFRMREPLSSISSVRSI

[6] = molecular target: Sphingosine 1-phosphate receptor 1 (Homo sapiens, UniProt P21453); assay type: functional;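 also: Tango beta-arrestin reporter U2OS cells stimulated with S1P near its EC80; inhibitor potency meaning antagonism of receptor activation by the natural agonist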
[7] = system: CHO-K1; assay: (§1) Counterscreen for antagonists of the orexin 1 receptor (OX1R; HCRTR1): Homogeneous time resolved fluorescence (HTRF)-based cell-based dose response assay to identify antagonists of the parental CHO-K1 cell line. [Related pubchem assays (depositor defined):AID434989, AID435008, AID463079, AID485270, AID492963, AID492964, AID492965, AID493232, AID504699, AID504701]; assay type: functional; settings: Cricetulus griseus
[8] = as §1, with “Fluorescence-based” for “Homogeneous time resolved fluorescence (HTRF)-based”, “cell-based high throughput” for “cell-based”, “CHO” for “CHO-K1”; assay type: functional
[9] = molecular target: T3, Orexin/Hypocretin receptor type 1 (Homo sapiens, UniProt O43613); assay: Homogeneous Time Resolved Fluorescence (HTRF)-based cell-based high throughput dose response assay for antagonists of the orexin 1 receptor (OX1R; HCRTR1). [Related pubchem assays (depositor defined):AID434989, AID435008, AID463079, AID485270, AID492963, AID492964, AID492965, AID493232, AID504717, AID504718]; assay type: functional
T3 sequence (O43613 whole entry): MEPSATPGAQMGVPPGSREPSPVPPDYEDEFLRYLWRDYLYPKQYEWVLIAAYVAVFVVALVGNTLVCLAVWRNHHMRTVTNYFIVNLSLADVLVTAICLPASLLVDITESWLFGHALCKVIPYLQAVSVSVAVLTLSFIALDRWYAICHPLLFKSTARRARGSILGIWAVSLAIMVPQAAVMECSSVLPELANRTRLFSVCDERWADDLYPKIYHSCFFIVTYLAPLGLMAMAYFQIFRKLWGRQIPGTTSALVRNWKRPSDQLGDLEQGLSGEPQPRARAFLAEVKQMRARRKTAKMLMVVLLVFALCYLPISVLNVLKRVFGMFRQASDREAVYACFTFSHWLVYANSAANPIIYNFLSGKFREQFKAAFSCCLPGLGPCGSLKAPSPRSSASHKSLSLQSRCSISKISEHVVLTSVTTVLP

[10] = molecular target: T3, Orexin/Hypocretin receptor type 1; assay: Fluorescence-based cell-based high throughput dose response assay for antagonists of the orexin 1 receptor (OX1R; HCRTR1). [Related pubchem assays (depositor defined):AID434989, AID435008, AID463079, AID485270, AID492963, AID492964, AID492965, AID493232, AID504717, AID504718]; assay type: functional
[11] = molecular target: Heat shock protein HSP 90-alpha (Homo sapiens, UniProt P07900); assay type: functional, organism-based
[12] = Fluorescence-based cell-based high throughput dose response assay for inhibitors of the interaction of nucleotide-binding oligomerization domain containing 2 (NOD2) and the receptor-interacting serine-threonine kinase 2 (RIPK2).; assay type: functional; settings: Homo sapiens
[13] = molecular target: Beta Lactamase (Pseudomonas aeruginosa, UniProt Q932Y6); assay: BLA reporter interference, concentration series – BLA reporter cells, FRET fluorescence, artefact control for NOD2-RIPK2 interaction inhibitor project, dose response (AID 651552); assay type: functional, cell-based
Chain of Beta Lactamase (Q932Y6 whole entry): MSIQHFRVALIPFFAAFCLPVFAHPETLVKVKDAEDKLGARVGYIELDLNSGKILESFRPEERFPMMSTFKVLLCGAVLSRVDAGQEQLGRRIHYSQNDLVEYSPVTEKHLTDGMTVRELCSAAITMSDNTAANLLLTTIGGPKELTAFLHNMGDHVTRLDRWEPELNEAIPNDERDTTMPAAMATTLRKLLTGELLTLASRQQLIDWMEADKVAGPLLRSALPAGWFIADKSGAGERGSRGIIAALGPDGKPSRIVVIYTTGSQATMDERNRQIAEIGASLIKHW

[14] = molecular target: Trypsin (Sus scrofa, UniProt P00761); assay: trypsin protease activity blockade – biochemical, quenched peptide fluorescence, cherry-pick, selectivity assay for Rce1 protease inhibitor project, dose response (AID 488789)
Chain of Trypsin (P00761 whole entry): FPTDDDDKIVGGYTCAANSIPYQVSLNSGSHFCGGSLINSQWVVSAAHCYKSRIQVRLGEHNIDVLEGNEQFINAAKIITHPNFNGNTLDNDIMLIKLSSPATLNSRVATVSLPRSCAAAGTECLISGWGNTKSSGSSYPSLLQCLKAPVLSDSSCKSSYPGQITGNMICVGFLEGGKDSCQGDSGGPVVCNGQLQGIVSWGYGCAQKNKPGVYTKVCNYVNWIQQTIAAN

[15] = molecular target: CAAX prenyl protease 2 (Saccharomyces cerevisiae S288c, UniProt Q03530); assay type: biochemical
Chain of CAAX prenyl protease 2 (Saccharomyces cerevisiae S288c, UniProt Q03530) (Q03530 whole entry): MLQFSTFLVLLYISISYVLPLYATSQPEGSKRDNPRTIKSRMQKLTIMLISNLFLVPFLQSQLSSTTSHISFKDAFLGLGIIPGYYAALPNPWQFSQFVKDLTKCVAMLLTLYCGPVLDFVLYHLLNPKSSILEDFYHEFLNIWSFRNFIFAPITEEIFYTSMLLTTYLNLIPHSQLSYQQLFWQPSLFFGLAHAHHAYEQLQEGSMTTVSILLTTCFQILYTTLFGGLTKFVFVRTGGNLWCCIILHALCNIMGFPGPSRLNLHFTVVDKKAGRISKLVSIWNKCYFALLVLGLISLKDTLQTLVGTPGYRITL

[16] = molecular target: CAAX prenyl protease 2 (Homo sapiens, UniProt Q9Y256); assay: inhibition of Ras-converting CAAX protease Rce1 – biochemical, yeast membranes, quenched-peptide fluorescence, cherry-pick, dose response (AID 588849)
Chain of CAAX prenyl protease 2 (Homo sapiens, UniProt Q9Y256) (Q9Y256 whole entry): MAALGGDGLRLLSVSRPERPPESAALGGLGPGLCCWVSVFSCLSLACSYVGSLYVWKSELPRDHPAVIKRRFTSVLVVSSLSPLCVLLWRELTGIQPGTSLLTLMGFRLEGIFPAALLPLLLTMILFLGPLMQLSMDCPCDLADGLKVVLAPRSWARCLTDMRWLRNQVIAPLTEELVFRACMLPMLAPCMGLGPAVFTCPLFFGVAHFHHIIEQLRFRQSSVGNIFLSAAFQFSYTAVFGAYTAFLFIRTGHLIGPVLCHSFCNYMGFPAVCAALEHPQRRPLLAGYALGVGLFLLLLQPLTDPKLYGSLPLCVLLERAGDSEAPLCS

T1 sequence (Q00975 whole entry): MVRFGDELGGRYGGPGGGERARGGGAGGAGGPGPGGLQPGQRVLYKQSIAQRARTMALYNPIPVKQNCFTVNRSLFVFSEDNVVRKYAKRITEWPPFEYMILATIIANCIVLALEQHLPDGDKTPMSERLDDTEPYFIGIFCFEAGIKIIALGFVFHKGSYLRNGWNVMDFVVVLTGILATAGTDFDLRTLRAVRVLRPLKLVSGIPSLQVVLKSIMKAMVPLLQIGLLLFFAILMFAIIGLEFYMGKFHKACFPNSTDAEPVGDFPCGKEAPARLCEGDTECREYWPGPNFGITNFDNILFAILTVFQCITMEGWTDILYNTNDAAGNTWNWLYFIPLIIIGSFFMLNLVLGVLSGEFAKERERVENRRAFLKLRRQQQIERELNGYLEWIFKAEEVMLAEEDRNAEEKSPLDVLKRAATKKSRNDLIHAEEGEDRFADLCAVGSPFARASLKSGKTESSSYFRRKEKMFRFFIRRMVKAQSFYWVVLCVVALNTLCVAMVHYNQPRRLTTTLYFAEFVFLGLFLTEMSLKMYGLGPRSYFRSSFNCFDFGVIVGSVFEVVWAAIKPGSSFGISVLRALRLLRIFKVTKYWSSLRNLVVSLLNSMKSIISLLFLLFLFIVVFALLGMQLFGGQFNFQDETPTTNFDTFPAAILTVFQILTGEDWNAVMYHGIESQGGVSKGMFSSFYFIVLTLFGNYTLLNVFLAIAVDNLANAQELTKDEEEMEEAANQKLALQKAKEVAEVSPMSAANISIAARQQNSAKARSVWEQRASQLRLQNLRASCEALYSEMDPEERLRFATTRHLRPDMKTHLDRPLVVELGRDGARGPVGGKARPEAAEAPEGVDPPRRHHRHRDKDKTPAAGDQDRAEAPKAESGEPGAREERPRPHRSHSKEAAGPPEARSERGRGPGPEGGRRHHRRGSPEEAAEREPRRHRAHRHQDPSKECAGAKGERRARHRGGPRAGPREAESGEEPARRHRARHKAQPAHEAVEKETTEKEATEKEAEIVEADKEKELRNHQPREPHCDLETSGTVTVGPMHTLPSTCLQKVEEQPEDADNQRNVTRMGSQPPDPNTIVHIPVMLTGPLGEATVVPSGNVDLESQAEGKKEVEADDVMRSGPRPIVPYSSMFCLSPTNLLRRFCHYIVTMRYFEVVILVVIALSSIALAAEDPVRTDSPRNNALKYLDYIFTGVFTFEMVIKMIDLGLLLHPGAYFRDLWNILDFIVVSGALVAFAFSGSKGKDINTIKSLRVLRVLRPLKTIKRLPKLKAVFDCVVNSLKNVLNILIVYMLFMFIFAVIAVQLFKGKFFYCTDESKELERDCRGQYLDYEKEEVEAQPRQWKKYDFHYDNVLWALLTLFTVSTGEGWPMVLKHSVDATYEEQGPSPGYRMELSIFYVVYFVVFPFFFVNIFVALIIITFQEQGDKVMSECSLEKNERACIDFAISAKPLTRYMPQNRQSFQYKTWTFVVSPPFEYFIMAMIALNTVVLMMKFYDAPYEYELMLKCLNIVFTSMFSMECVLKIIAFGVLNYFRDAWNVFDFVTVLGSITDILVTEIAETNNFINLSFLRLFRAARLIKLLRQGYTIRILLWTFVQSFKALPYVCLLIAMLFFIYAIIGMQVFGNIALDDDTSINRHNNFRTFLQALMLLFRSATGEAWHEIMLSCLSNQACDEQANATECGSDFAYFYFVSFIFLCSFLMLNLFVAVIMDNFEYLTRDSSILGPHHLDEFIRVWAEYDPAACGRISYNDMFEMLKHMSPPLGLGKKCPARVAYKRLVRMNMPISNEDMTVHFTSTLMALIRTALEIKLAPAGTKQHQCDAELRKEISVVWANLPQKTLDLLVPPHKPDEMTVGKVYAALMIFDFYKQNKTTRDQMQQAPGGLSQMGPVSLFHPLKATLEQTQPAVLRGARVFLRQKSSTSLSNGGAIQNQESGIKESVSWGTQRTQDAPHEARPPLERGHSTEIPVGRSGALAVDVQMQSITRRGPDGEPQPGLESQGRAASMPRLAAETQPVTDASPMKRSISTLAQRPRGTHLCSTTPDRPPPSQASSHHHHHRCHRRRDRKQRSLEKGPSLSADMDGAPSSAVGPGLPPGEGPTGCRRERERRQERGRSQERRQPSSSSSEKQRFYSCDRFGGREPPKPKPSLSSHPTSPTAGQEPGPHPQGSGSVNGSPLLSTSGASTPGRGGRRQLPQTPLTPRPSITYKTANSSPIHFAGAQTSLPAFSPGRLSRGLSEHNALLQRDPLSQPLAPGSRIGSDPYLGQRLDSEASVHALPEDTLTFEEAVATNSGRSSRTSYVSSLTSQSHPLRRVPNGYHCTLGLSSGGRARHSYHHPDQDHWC
T1 sequence (Q02410 whole entry): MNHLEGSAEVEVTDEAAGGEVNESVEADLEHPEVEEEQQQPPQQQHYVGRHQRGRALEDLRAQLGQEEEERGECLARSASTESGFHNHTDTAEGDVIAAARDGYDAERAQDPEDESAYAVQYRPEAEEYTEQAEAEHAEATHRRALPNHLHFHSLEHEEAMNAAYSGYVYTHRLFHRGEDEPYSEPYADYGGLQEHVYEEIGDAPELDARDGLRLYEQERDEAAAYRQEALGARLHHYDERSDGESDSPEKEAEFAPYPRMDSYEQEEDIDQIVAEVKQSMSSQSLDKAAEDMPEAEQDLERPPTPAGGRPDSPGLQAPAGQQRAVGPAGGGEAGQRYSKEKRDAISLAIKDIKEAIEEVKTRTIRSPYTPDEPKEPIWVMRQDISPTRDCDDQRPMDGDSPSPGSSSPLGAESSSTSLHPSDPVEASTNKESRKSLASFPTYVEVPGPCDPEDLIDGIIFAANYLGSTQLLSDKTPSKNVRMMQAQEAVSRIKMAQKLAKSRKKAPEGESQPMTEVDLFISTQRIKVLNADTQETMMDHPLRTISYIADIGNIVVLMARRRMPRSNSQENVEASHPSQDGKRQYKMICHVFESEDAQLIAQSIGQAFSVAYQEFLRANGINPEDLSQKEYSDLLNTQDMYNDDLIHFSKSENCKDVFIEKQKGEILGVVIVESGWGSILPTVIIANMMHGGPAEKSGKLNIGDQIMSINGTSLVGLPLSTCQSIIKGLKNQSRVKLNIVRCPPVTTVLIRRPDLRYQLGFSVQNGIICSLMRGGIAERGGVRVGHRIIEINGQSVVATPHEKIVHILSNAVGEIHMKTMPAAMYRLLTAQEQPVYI

AC50 [14]	AC50 [15]	AC50 [16]	Structure (SMILES)	IC50 [1]	EC50 [2]	EC50 [3]	IC50 [4]	IC50 [5]	IC50 [6]	IC50 [7]	IC50 [8]	IC50 [9]	IC50 [10]	AC50 [11]	IC50 [12]	IC50 [13]
			O=C1C=C(c2ccc(Cl)cc2)C(=O)N1Nc1ccccc1	21.1 µM (active)	> 112 µM (not active)	21.5 µM (active)	> 50 µM (inactive)	1.95 µM (active)	13.6 µM (not active)	50.7 µM (inactive)	4.98 µM (active)	3.73 µM (active)	3.12 µM (active)	0.267 µM (active)	1.03 µM (active)	13 µM (inactive)
4.57 µM (active)	4.24 µM (active)	2.75 µM (active)	CC1(C(=O)N(CC(=O)NC2CCCC2)Cc2ccccc2)CC(=O)N=C2C=CC=CN21 (stereo unspecified)													
